Results on two molecules are retold here after PMC11271627, “Molecular dynamics-guided optimization of BGM0504 enhances dual-target agonism for combating diabetes and obesity” (Scientific Reports, 2024).

The target of one data set is T1, Human GIPR (Homo sapiens, UniProt P48546).
T1 construct: expressed in transfected cells; host or cells: CHO cells
T1 sequence (P48546 22-466): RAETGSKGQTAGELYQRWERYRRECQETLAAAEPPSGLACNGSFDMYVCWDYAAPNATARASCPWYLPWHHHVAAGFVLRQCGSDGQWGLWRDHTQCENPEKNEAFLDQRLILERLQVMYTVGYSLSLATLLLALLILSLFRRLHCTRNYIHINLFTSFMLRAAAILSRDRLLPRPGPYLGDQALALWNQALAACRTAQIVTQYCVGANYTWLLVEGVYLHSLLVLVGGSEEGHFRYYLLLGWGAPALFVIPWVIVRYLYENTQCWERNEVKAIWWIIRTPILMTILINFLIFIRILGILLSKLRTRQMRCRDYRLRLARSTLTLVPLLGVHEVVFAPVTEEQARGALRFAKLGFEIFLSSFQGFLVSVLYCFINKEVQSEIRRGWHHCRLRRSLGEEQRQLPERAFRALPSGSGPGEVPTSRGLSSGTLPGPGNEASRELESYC
Nature of the data set: cAMP accumulation assay, GIPR. The format is cell-based. The settings on record: CHO. On the procedure: (§1) These cells were then resuspended in 5 mL of the assay buffer, and their concentration was determined using a Vi-Cell Counter. […] Samples were subsequently added to the assay plate along with ECHO555. […] A volume of 10 µL of the cell suspension was added to the assay plate, with a density of 1000 cells/well for GLP-1R testing and 2000 cells/well for GIPR testing. The assay plate was then incubated in a 23°C incubator for 30 minutes. A starting concentration of 800 nM was used to prepare the cAMP standard curve, followed by a 4-fold 10-point serial dilution. These serially diluted cAMP standards were added to the assay plate at a volume of 10 µL/well. Subsequently, 10 µL of the cAMP detection solution was added to the assay plate, and the plate was incubated at room temperature for 1 hour, shielded from direct light. […] For data analysis, each data point’s cAMP level (nM) was calculated using the established cAMP standard curve. The percentage activity for each data point was determined using the formula: % Activity = (cAMP level of testing sample - average cAMP level of low control) / ([…] cAMP level of high control - average cAMP level of […] control) × 100%. Additionally, the ‘log(agonist) vs. response – variable slope’ model in GraphPad Prism 5.0 was used to fit the dose-response curve of each sample and calculate the EC50 value.
A general note: cAMP levels reflect the balance of adenylyl cyclase and phosphodiesterase activity.

The target of a further data set is T2, Human GLP-1R (Homo sapiens, UniProt P43220).
T2 construct: expressed in transfected cells; host or cells: HEK293 cells
T2 sequence (P43220 24-463): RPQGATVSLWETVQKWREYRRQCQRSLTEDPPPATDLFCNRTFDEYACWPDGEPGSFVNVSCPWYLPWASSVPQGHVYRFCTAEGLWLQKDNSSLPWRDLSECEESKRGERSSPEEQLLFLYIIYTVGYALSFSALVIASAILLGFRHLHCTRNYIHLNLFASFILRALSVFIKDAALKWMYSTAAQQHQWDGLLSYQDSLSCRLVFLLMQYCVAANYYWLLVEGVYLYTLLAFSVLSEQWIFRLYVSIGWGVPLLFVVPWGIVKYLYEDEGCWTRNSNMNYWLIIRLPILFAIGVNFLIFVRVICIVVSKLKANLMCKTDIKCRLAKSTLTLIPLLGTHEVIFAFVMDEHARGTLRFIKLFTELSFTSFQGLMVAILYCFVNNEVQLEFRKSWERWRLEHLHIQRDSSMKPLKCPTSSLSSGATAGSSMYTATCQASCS
Nature of the data set: cAMP accumulation assay, GLP-1R. The format is cell-based. The note with it: HEK293 cells; relative to 10 nM GLP-1(7–37) high control; arithmetic mean ± SEM. How it is done:
as §1

Data set [1] has as its target T3, Human Serum Albumin (HSA) protein (Homo sapiens, UniProt P02768).
T3 construct: purified Human ALB (25–609)-His was immobilized
Briefly: biochemical. Type of data set: binding. An excerpt:
The buffer used was PBST (PBS with 0.02% Tween 20).

T3 sequence (P02768 25-609): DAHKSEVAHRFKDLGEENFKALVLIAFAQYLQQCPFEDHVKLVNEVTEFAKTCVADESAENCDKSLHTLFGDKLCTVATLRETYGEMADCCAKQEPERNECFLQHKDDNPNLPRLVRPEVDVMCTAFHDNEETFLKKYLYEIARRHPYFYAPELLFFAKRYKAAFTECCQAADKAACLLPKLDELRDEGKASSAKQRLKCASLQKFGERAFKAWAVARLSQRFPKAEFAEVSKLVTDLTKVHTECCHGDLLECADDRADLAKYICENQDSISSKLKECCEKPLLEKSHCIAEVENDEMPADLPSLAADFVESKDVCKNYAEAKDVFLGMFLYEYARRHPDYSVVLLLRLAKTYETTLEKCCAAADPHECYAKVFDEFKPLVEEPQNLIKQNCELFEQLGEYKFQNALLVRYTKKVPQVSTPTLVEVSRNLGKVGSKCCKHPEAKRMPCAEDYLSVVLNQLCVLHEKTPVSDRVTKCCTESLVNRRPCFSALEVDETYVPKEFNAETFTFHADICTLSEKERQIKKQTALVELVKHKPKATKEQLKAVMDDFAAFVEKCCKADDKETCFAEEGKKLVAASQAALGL

Broadly, the Emax is the maximal effect, on the per cent scale that the assay sets. With `CC[C@H](C)[C@H](NC(=O)[C@H](CC(C)C)NC(=O)[C@H](Cc1c[nH]c2ccccc12)NC(=O)[C@H](CCC(N)=O)NC(=O)[C@@H](NC(=O)[C@H](Cc1ccccc1)NC(=O)[C@H](C)NC(=O)[C@H](CCCCN)NC(=O)[C@H](CCC(N)=O)NC(=O)[C@H](C)NC(=O)[C@@H](NC(=O)[C@H](CCCCN)NC(=O)[C@H](CC(=O)O)NC(=O)[C@H](CC(C)C)NC(=O)C(C)(C)NC(=O)[C@@H](NC(=O)[C@H](CO)NC(=O)[C@H](Cc1ccc(O)cc1)NC(=O)[C@H](CC(=O)O)NC(=O)[C@H](CO)NC(=O)[C@@H](NC(=O)[C@H](Cc1ccccc1)NC(=O)[C@@H](NC(=O)CNC(=O)[C@H](CCC(=O)O)NC(=O)C(C)(C)NC(=O)[C@@H](N)Cc1ccc(O)cc1)[C@@H](C)O)[C@@H](C)O)[C@@H](C)CC)[C@@H](C)CC)C(C)C)C(=O)N[C@@H](C)C(=O)NCC(=O)NCC(=O)N1CCC[C@H]1C(=O)N[C@@H](CO)C(=O)N[C@@H](CO)C(=O)NCC(=O)N[C@@H](C)C(=O)N1CCC[C@H]1C(=O)N1CCC[C@H]1C(=O)N1CCC[C@H]1C(=O)N[C@@H](CO)C(N)=O` [Non-acylated Tirzepatide, reference compound], the Emax came out at 92.2 ± 1.7% on Human GIPR and 96.1 ± 10.8% on Human GLP-1R.

What is called Kd is the free concentration of one partner at which half of the binding sites on the other are occupied at equilibrium, for simple one-to-one binding. A low value points to tighter binding. In data set [1], `CC[C@H](C)[C@H](NC(=O)[C@H](CC(C)C)NC(=O)[C@H](Cc1c[nH]c2ccccc12)NC(=O)[C@H](CCC(N)=O)NC(=O)[C@@H](NC(=O)[C@H](Cc1ccccc1)NC(=O)[C@H](C)NC(=O)[C@H](CCCCNC(=O)COCCOCCNC(=O)COCCOCCNC(=O)CC[C@H](NC(=O)CCCCCCCCCCCCCCCCCCC(=O)O)C(=O)O)NC(=O)[C@H](CCC(N)=O)NC(=O)[C@H](C)NC(=O)[C@@H](NC(=O)[C@H](CCCCN)NC(=O)[C@H](CC(=O)O)NC(=O)[C@H](CC(C)C)NC(=O)C(C)(C)NC(=O)[C@@H](NC(=O)[C@H](CO)NC(=O)[C@H](Cc1ccc(O)cc1)NC(=O)[C@H](CC(=O)O)NC(=O)[C@H](CO)NC(=O)[C@@H](NC(=O)[C@H](Cc1ccccc1)NC(=O)[C@@H](NC(=O)CNC(=O)[C@H](CCC(=O)O)NC(=O)C(C)(C)NC(=O)[C@@H](N)Cc1ccc(O)cc1)[C@@H](C)O)[C@@H](C)O)[C@@H](C)CC)[C@@H](C)CC)C(C)C)C(=O)N[C@@H](C)C(=O)NCC(=O)NCC(=O)N1CCC[C@H]1C(=O)N[C@@H](CO)C(=O)N[C@@H](CO)C(=O)NCC(=O)N[C@@H](C)C(=O)N1CCC[C@H]1C(=O)N1CCC[C@H]1C(=O)N1CCC[C@H]1C(=O)N[C@@H](CO)C(N)=O` [Tirzepatide, reference compound] showed a Kd of 86.3 nM. Further, the Emax is 87.1 ± 7.6% at Human GIPR and 84.1 ± 5% at Human GLP-1R.
